1 molecule from patent US7417162B2, “Oily ingredient for cosmetic preparation and cosmetic preparation” (Kyowa Yuka Co., Ltd., priority 2001, dated 2008) can be followed below.

The nature of this data set: Test for solubility of a UV-A absorber in the oil. The class given is physicochemical. The conditions noted are these: for Solubility of a UV-A absorber: UV-A absorber dissolved to saturation in the compound. The procedure: Then, absorbance (A) of a peak observed near 350 nm was measured. Solubility was figured out from a value calculated by the following equation and a weight of a sample prepared. The measurement temperatures are at room temperature ([…]) and 50° C.

In the case of `CCC(CC(CC)C(=O)OC)C(=O)OC` (stereo not drawn) [Compound 3, dimethyl 2,4-diethylglutarate], the “Solubility of a UV-A absorber” value is given as 40.7 g/100 g (50° C.) and 23.1 g/100 g (room temperature (25° C.)). The “Solubility of the UV-A absorber, in words” value (in comparison to comparative compound 1) was “excellent”.
